How the values were obtained:
Format in all cases: cell-based
human TLR9 = biological target: T1, human TLR9 (Homo sapiens, UniProt Q9NR96); test: TLR9 inhibition reporter assay (HEK-Blue SEAP); details: HEK-Blue cells overexpressing human TLR9, stimulated with ODN2006 5 nM, 22 hour incubation
T1 construct: host or cells: HEK-Blue cells
T1 sequence (Q9NR96 26-1032): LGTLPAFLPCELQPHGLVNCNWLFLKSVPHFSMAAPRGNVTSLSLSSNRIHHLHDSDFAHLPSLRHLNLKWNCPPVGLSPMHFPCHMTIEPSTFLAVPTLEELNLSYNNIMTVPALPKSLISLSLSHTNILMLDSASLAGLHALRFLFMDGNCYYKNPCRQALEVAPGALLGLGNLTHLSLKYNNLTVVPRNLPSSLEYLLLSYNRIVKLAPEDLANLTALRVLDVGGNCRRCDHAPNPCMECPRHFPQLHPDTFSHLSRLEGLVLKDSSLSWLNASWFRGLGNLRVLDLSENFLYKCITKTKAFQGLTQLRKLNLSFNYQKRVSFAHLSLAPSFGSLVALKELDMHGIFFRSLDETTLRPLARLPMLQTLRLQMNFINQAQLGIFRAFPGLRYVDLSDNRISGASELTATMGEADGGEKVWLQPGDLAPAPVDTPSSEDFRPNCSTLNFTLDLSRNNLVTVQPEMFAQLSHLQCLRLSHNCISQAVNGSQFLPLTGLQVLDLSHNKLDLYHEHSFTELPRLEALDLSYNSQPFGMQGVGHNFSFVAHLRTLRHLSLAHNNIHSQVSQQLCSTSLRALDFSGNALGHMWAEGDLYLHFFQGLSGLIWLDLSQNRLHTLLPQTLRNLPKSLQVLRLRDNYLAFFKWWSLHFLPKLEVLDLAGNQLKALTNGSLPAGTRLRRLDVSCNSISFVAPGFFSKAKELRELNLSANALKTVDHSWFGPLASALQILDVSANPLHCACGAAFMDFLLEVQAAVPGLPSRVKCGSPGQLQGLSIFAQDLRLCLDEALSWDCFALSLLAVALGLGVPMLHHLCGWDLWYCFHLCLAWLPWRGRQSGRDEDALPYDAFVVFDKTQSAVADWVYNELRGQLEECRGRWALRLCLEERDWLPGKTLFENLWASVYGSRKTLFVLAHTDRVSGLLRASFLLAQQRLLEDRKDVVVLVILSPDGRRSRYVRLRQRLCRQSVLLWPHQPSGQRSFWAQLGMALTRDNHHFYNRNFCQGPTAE
Procedure: (§1) TLR7/8/9 Inhibition Reporter Assays
(§2) HEK-Blue™-cells (Invivogen) overexpressing human TLR7, TLR8 or TLR9 receptors were used for screening inhibitors of these receptors using an inducible SEAP (secreted embryonic alkaline phosphatase) reporter gene under the control of the IFN-β minimal promoter fused to five NF-κB and AP-1-binding sites. Briefly, cells are seeded into Greiner 384 well plates (15000 cells per well for TLR7, 20.000 for TLR8 and 25,000 for TLR9) and then treated with test compounds in DMSO to yield a final dose response concentration range of 0.05 nM-50 μM. After a 30 minute compound pre-treatment at room temperature, the cells are then stimulated with a TLR7 ligand (gardiquimod at a final concentration of 7.5 μM), TLR8 ligand (R848 at a final concentration of 15.9 μM) or TLR9 ligand (ODN2006 at a final concentration of 5 nM) to activate NF-κB and AP-1 which induce the production of SEAP. After a 22 hour incubation at 37° C., 5% CO2, SEAP levels are determined with the addition of HEK-Blue™ Detection reagent (Invivogen), a cell culture medium that allows for detection of SEAP, according to manufacturer's specifications. The percent inhibition is determined as the % reduction in the HEK-Blue signal present in wells treated with agonist plus DMSO alone compared to wells treated with a known inhibitor.

human TLR7 = biological target: T2, human TLR7 (Homo sapiens, UniProt Q9NYK1); test: TLR7 inhibition reporter assay (HEK-Blue SEAP); details: HEK-Blue cells overexpressing human TLR7, stimulated with gardiquimod 7.5 μM, 22 hour incubation
T2 construct: host or cells: HEK-Blue cells
T2 sequence (Q9NYK1 27-1049): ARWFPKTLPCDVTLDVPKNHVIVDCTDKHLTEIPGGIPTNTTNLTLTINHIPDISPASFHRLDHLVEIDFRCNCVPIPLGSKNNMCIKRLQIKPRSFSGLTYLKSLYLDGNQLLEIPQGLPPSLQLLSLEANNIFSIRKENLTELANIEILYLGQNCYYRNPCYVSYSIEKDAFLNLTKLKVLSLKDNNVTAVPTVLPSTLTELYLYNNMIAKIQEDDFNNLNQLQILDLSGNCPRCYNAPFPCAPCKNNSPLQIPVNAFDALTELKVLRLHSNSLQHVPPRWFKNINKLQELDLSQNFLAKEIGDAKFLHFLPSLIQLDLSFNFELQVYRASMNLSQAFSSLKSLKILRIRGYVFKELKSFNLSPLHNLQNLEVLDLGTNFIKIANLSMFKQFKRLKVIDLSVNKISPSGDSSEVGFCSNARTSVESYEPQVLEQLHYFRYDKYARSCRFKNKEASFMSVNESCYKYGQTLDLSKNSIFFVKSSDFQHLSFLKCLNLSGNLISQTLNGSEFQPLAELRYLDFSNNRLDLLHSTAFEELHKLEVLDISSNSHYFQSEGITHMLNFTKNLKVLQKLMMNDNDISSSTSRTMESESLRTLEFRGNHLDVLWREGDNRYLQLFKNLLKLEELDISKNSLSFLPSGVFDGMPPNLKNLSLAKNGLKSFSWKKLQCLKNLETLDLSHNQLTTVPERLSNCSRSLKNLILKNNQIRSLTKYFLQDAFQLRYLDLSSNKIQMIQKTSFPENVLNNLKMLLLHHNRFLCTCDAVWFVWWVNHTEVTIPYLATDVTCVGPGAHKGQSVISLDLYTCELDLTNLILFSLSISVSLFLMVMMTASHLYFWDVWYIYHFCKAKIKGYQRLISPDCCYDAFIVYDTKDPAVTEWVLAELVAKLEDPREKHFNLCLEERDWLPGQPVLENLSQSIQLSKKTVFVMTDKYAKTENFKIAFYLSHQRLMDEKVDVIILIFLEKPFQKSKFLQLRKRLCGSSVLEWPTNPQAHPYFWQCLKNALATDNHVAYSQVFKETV
Procedure: as §1, §2

human TLR8 = biological target: T3, human TLR8 (Homo sapiens, UniProt Q9NR97); test: TLR8 inhibition reporter assay (HEK-Blue SEAP); details: HEK-Blue cells overexpressing human TLR8, stimulated with R848 15.9 μM, 22 hour incubation
T3 construct: host or cells: HEK-Blue cells
T3 sequence (Q9NR97 27-1041): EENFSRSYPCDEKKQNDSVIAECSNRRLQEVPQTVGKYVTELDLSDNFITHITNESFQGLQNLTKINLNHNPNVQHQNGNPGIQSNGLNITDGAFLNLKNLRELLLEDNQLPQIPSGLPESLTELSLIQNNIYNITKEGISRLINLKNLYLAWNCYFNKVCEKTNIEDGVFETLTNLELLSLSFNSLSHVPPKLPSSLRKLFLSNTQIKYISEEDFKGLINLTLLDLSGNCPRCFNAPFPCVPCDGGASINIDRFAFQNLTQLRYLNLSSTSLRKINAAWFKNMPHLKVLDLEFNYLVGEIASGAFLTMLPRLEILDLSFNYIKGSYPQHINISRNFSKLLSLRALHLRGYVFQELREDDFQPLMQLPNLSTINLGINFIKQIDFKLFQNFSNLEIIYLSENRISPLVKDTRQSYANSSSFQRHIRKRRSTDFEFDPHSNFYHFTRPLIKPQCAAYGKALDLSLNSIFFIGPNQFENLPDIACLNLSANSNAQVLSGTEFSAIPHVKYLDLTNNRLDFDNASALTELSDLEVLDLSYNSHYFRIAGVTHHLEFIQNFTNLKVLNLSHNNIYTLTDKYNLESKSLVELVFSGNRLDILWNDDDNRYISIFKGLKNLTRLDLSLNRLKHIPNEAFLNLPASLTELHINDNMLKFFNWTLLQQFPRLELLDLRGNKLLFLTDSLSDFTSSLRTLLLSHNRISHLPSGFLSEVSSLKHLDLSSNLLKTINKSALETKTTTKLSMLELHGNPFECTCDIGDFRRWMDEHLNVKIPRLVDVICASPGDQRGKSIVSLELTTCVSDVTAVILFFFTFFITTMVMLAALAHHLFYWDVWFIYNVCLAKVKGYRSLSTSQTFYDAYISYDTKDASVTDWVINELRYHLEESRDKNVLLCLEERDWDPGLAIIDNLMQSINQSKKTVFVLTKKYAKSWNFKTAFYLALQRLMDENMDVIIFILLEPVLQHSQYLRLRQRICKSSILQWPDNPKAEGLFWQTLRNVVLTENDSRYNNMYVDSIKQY
Procedure: as §1, §2

Structure (SMILES)	IC50 (human TLR9)	IC50 (human TLR7)	IC50 (human TLR8)
Cc1cc(-c2[nH]c3ccc(OCC4CCCN(C)C4)cc3c2C(C)C)cc(C)n1 (stereo not drawn) [Example 30, 2-(2,6-dimethylpyridin-4-yl)-3-isopropyl-5-((1-methylpiperidin-3-yl)methoxy)-1H-indole]	304 nM	2.3 nM	2.6 nM
Cc1cc(-c2[nH]c3ccc(OC4CCN(C(C)C)CC4)cc3c2C(C)C)cc(C)n1 [Example 31, 2-(2,6-dimethylpyridin-4-yl)-3-isopropyl-5-((1-isopropylpiperidin-4-yl)oxy)-1H-indole]	530 nM	2.9 nM	1 nM
Cc1cc(-c2[nH]c3ccc(OC4CCN(C)CC4)cc3c2C(C)C)cn2ncnc12 [Example 32, 6-(3-isopropyl-5-((1-methylpiperidin-4-yl)oxy)-1H-indol-2-yl)-8-methyl-[1,2,4]triazolo[1,5-a]pyridine]	1620 nM	0.9 nM	1 nM
Cc1cc(-c2[nH]c3ccc(OCC4CCN(C)CC4)cc3c2C(C)C)cc(C)n1 [Example 33, 2-(2,6-dimethylpyridin-4-yl)-3-isopropyl-5-((1-methylpiperidin-4-yl)methoxy)-1H-indole]	502 nM	2.8 nM	2.6 nM
Cc1cc(-c2[nH]c3ccc(OCC4CCN(C)CC4)cc3c2C(C)C)cn(C)c1=O [Example 34, 5-(3-isopropyl-5-((1-methylpiperidin-4-yl)methoxy)-1H-indol-2-yl)-1,3-dimethylpyridin-2(1H)-one]	5550 nM	2.4 nM	1.6 nM
Cc1cc(-c2[nH]c3ccc(OCC4CCN(C(C)C)CC4)cc3c2C(C)C)cc(C)n1 [Example 35, 2-(2,6-dimethylpyridin-4-yl)-3-isopropyl-5-((1-isopropylpiperidin-4-yl)methoxy)-1H-indole]	317 nM	4.9 nM	2.7 nM
Cc1cc(-c2[nH]c3ccc(OCC4CCN(C(C)C)CC4)cc3c2C(C)C)cn(C)c1=O [Example 36, 5-(3-isopropyl-5-((1-isopropylpiperidin-4-yl)methoxy)-1H-indol-2-yl)-1,3-dimethylpyridin-2(1H)-one]	10600 nM	5.6 nM	2.4 nM
Cc1cc(-c2[nH]c3ccc(O[C@H]4CCCN(C)C4)cc3c2C(C)C)cn(C)c1=O [Example 37, (S)-5-(3-isopropyl-5-((1-methylpiperidin-3-yl)oxy)-1H-indol-2-yl)-1,3-dimethylpyridin-2(1H)-one]	46800 nM	12.8 nM	56.3 nM
Cc1cc(-c2[nH]c3ccc(O[C@H]4CCCN(C)C4)cc3c2C(C)C)cn2ncnc12 [Example 38, (S)-6-(3-isopropyl-5-((1-methylpiperidin-3-yl)oxy)-1H-indol-2-yl)-8-methyl-[1,2,4]triazolo[1,5-a]pyridine]	3640 nM	3.6 nM	27 nM
Cc1cc(-c2[nH]c3ccc(OC4CCN(C5CCOCC5)CC4)cc3c2C(C)C)cn(C)c1=O [Example 39, 5-(3-isopropyl-5-((1-(tetrahydro-2H-pyran-4-yl)piperidin-4-yl)oxy)-1H-indol-2-yl)-1,3-dimethylpyridin-2(1H)-one]	8190 nM	2.5 nM	0.5 nM
Cc1cc(-c2[nH]c3ccc(O[C@H]4CCCN(C5CCOCC5)C4)cc3c2C(C)C)cn(C)c1=O [Example 40, (S)-5-(3-isopropyl-5-((1-(tetrahydro-2H-pyran-4-yl)piperidin-3-yl)oxy)-1H-indol-2-yl)-1,3-dimethylpyridin-2(1H)-one]	5250 nM	15.9 nM	10.8 nM
Cc1cc(-c2[nH]c3ccc(OCC4CCN(C)CC4)cc3c2C(C)C)cn2ncnc12 [Example 41, 6-(3-isopropyl-5-((1-methylpiperidin-4-yl)methoxy)-1H-indol-2-yl)-8-methyl-[1,2,4]triazolo[1,5-a]pyridine]	3440 nM	1.2 nM	5.7 nM
Cc1cc(-c2[nH]c3ccc(OCC4CCN(C(C)C)CC4)cc3c2C(C)C)cn2ncnc12 [Example 42, 6-(3-isopropyl-5-((1-isopropylpiperidin-4-yl)methoxy)-1H-indol-2-yl)-8-methyl-[1,2,4]triazolo[1,5-a]pyridine]	350 nM	0.2 nM	0.4 nM

From US12030878B2 (BRISTOL-MYERS SQUIBB COMPANY, priority 2017, dated 2024)
